Results on ten molecules are retold here after patent publication US20090081194A1, “COMPOSITIONS AND METHODS FOR REDUCING RISK OF DEVELOPMENT, OR SEVERITY, OF INAPPROPRIATE IMMUNE RESPONSE IN EYES” (priority 2007, published 2009).

Data set [1] deals with T1, TLR9 (Homo sapiens, UniProt Q9NR96).
T1 sequence (Q9NR96 26-1032): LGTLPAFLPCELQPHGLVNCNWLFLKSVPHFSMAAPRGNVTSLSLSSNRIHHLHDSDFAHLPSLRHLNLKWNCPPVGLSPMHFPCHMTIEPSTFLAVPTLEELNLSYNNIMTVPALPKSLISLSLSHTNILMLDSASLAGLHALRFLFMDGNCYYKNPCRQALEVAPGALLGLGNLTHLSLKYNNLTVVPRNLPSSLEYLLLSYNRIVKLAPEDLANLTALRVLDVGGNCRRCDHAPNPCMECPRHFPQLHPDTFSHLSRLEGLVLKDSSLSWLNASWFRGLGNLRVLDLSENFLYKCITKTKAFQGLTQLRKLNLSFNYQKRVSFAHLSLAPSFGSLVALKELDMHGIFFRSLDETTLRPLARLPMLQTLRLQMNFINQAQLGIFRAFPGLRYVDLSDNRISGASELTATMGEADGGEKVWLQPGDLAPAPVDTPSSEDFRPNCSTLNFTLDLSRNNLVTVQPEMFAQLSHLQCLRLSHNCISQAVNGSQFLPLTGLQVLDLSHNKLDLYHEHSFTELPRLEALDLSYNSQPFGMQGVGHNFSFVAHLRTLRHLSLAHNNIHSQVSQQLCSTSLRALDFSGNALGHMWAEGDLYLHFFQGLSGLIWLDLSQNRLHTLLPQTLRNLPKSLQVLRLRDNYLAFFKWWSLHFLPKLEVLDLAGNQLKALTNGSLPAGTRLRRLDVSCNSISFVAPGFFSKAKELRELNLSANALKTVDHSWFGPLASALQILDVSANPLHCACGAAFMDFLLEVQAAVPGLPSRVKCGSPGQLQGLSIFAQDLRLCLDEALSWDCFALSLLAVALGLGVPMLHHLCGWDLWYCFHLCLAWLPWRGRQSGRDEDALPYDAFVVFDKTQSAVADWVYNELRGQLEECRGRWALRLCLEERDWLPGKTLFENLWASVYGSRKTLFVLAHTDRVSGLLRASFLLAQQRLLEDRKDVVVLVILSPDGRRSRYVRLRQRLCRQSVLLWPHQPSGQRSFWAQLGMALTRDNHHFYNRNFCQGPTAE
To be noted: Bhattacharjee et al. 2006; Macfarlane et al. 1998; cited from earlier work.

Data set [2] deals with U937, a macrophage cell line. The data set is described as follows: TLR ligand-induced CXCL8 (IL-8) release, U937 cell line. The class given is cell-based, human. Conditions: FIG. 7. The text has this: (§1) Three human cell lines representative of immune responsive cells of the ocular surface (HCEL, a human corneal epithelial cell line representative of cells present on the ocular surface; HL-60, a neutrophil-like cell line representative of neutrophils present in the tear layer, especially in the closed eye; and U937, a macrophage cell line representative of dendritic cells of the cornea, especially of those at the limbus) were exposed to various concentrations of compositions of the present invention containing the inhibitory ODN TTAGGG (InvivoGen, San Diego, Calif.) and vitamin D (1α,25-Dihydroxyvitamin D3, Sigma-Aldrich, St. Louis, Mo.) and control compositions containing prednisolone (1,4-Pregnadiene-11β,17α,21-triol-3,20-dione, Sigma-Aldrich, St. Louis, Mo.) for 1 hour prior to activation by the TLR ligand Pam3Cys for 6 hour, flagellin (flagellin purified from Salmonella typhimurium, InvivoGen, San Diego, Calif.) for 24 hr, or the stimulatory CpG type B ODN 2006 (Invivogen, San Diego, Calif.) for 24 hours. After incubation at 37° C., supernates were collected for ELISA assay (R&D Systems, Minneapolis, Minn.) for the pro-inflammatory cytokine CXCL8 (“IL-8”). Both the inhibitory ODN TTAGGG and vitamin D inhibited cytokine response to TLR ligand activation of each cell line in an inhibitor-specific manner. […] Inhibition of the stimulatory ODN CpGB ODN 2006 was only tested with inhibitory ODN TTAGGG on U937 cells.

In data set [3] the test system is HL-60, a neutrophil-like cell line. Put plainly: TLR ligand-induced CXCL8 (IL-8) release, HL-60 cell line. Conditions: inhibitor 1 hour before, FIG. 7. It is filed as cell-based, human.
Excerpt: as §1

For data set [4], the system named is HCEL, a human corneal epithelial cell line. Put plainly: TLR ligand-induced CXCL8 (IL-8) release, HCEL cell line. To be noted: inhibitor 1 hour before, FIG. 7. It is filed as cell-based.
Excerpt: as §1

The subject of the next data set is TLR4. To be noted: monocytes; K. Sadeghi et al. 2006; cited from earlier work.
Another data set deals with TLR2. To be noted: monocytes; K. Sadeghi et al. 2006; cited from earlier work.
The target in data set [5] is T1, TLR9. To be noted: Gursel et al. 2003; Stunz et al. 2002; cited from earlier work.
The subject of a further data set is U937 cells. To be noted: H. Mitsuzawa et al. 2006; cited from earlier work.
A further data set deals with NF-κB. Conditions: LPS-elicited; H. Mitsuzawa et al. 2006; cited from earlier work.
The mark [6] stands for this setting: flagellin activation 24 hr, inhibitor 1 hour before.

For the molecule `Nc1ccnc2ccccc12` [4-aminoquinoline], the “immunostimulatory action of CpG ODN” value on TLR9 [1] is “block the immunostimulatory action of CpG ODN”.

As to `Nc1c2ccccc2nc2ccccc12` [9-aminoacridine], the “immunostimulatory action of CpG ODN” value on TLR9 [1] was “block the immunostimulatory action of CpG ODN”.

Consider `C[C@]12C=CC(=O)C=C1CC[C@@H]1[C@@H]2[C@@H](O)C[C@@]2(C)[C@H]1CC[C@]2(O)C(=O)CO` [Prednisolone, 1,4-Pregnadiene-11β,17α,21-triol-3,20-dione], for which the “CXCL8 (IL-8) cytokine response” value in data set [2] (setting [6]), in data set [3] (Pam3Cys activation 6 hour), in data set [3] (flagellin activation 24 hr), in data set [4] (Pam3Cys activation 6 hour) and in [4] (flagellin activation 24 hr) was “inhibited” in each case.

Regarding `C=C1/C(=C\C=C2/CCC[C@]3(C)[C@@H]([C@H](C)CCCC(C)(C)O)CC[C@@H]23)C[C@@H](O)C[C@@H]1O` [Vitamin D, 1α,25-Dihydroxyvitamin D3], the “CXCL8 (IL-8) cytokine response” value in [2] (setting [6]), in data set [3] (flagellin activation 24 hr) and in data set [4] (Pam3Cys activation 6 hour) was “reduced the cytokine response” each time. In the data set with TLR4, the “expression of TLR4” value is “diminishes the expression”. Further, the “expression of TLR2” value in the data set on TLR2 is “diminishes the expression”.

Take `CCN(CC)CCCC(C)Nc1ccnc2cc(Cl)ccc12` (stereo not drawn) [chloroquine]: on TLR9 [1], the “immunostimulatory action of CpG ODN” value is “block the immunostimulatory action of CpG ODN”.

Regarding `CCN(CCO)CCCC(C)Nc1ccnc2cc(Cl)ccc12` (stereo not drawn) [hydroxychloroquine], on TLR9 [1], the “immunostimulatory action of CpG ODN” value is on record as “block the immunostimulatory action of CpG ODN”.

Regarding `CCN(CC)CCCC(C)Nc1c2ccc(Cl)cc2nc2ccc(OC)cc12` (stereo not drawn) [quinacrine], at TLR9 [1], the “immunostimulatory action of CpG ODN” value was “block the immunostimulatory action of CpG ODN”.

Turning to “TTAGGG (listed as Homo sapiens) [ODN TTTAGGG]”, the “CXCL8 (IL-8) cytokine response” value is recorded as “reduced the cytokine response” in data set [2] (Pam3Cys activation 6 hour, inhibitor 1 hour before); “reduced the cytokine response” in [2] (stimulatory CpG type B ODN 2006 activation 24 hours); “reduced the cytokine response” in data set [3] (Pam3Cys activation 6 hour); “reduced the cytokine response” in data set [4] (Pam3Cys activation 6 hour). In addition, the “colocalization of CpG DNA with TLR9 within endosomal vesicles” value with TLR9 [5] is on record as “block the colocalization”.

“sTLR4: soluble form of a CD14-binding extracellular domain of TLR4”: in the data set on U937 cells, the “LPS-elicited IL-8 release” value is reported as “effective in inhibiting”. Besides, the NF-κB activation entry in the data set with NF-κB is listed as “effective in inhibiting”.

B1: sMD-2: soluble form of MD-2 (protein, UniProt Q9Y6Y9 19-160, looked up)
Lymphocyte antigen 96: QKQYWVCNSSDASISYTYCDKMQYPISINVNPCIELKRSKGLLHIFYIPRRDLKQLYFNLYITVNTMNLPKRKEVICRGSDDDYSFCRALKGETVNTTISFSFKGIKFSKGKYKCVVEAISGSPEEMLFCLEFVILHQPNSN
For the molecule B1, in the data set on U937 cells, the “LPS-elicited IL-8 release” value is “effective in inhibiting”. In addition, the NF-κB activation entry with NF-κB is “effective in inhibiting”.
